Laboratory results taken from US20180110754A1, “CENICRIVIROC FOR THE TREATMENT OF FIBROSIS” (Tobira Therapeutics, Inc., priority 2015, published 2018).
Like-named read-outs stand apart in the source and are kept apart here.

Tests used:
[1] = Mouse thioglycollate-induced peritonitis model: CVC plasma levels (LC/MS/MS); assay type: in vivo
Protocol: (§1) The lavage fluid was placed on wet ice pending processing for total and differential cell counts using the Advia analyzer. Following the lavage collection, a blood sample (0.7 mL) was collected from each mouse by intracardiac puncture or from the vena cava (collection time was recorded). 0.5 mL of blood was placed in an EDTA tube, transferred to clinical pathology and analyzed for differential cell counts using the Advia analyzer. 0.2 mL of blood was placed in a K2EDTA tube and processed to plasma. The plasma was collected by centrifugation (3000 rpm for 10 minutes at 4° C.) and placed on dry ice. The samples were analyzed to determine CVC plasma levels. After blood collection, the animals were then exsanguinated by sectioning of the abdominal aorta.
Animals received the test article by oral gavage from Days 1 to 5. The twice daily (BID) dosing in Groups 2 to 5 was separated by approximately 12 hours. Blood samples were collected on Day 6 for assessment of plasma levels. Samples were collected by intracardiac puncture or from the vena cava, placed in a K2EDTA tube, and processed to plasma. Samples were stored frozen at −70 to −90° until analyzed. Due to the sacrifice time (48 hours after thioglycollate administration) being dictated by the primary endpoint, samples were collected approximately 14 hours postdose for Groups 2-5 and 26 hours postdose for the remaining groups. No samples were collected for animals 105, 201, 303 and 503.

[2] = biological target: CCR4 (Homo sapiens, UniProt P51679); assay: Inhibition of ligand binding to CCR4
Sequence of CCR4 (P51679 whole entry): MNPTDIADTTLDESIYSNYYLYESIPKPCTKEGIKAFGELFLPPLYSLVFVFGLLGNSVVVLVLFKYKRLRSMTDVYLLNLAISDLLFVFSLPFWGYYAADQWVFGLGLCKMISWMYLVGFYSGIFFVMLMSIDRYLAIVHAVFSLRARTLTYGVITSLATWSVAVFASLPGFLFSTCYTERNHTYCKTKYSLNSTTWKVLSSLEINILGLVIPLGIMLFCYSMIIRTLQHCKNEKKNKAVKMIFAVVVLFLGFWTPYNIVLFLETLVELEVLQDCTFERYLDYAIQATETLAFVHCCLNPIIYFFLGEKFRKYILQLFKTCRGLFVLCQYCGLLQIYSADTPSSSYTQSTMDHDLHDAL

[3] = system: thioglycollate-induced peritonitis (monocyte/macrophage and leukocyte recruitment); assay: Mouse thioglycollate-induced peritonitis model: peritoneal lavage cell counts, body weight; assay type: in vivo
Protocol: Summary: The mouse thioglycollate induced peritonitis model is a commonly used preclinical model to assess the recruitment of […] cells and to assess the activation of macrophages.
Dexamethasone was used as a positive control in this experiment as it is a corticosteroid known to reduce inflammation in a variety of animal models. Murine inflammation models indicate that the effective dose range for dexamethasone, when administered orally, is 0.3 to 3 mg/kg QD. On this basis, an intermediate dose of 1 mg/kg was chosen for this particular study.
The lavage was repeated with a second injection of 2.5 mL via the initial puncture site and the samples were pooled for each animal.
as §1, with “The samples were analyzed to determine CVC plasma levels.” left out
Statistical Analysis: One-way ANOVA with post-hoc Dunnett's statistical analysis was performed on differential cell counts obtained from lavage and blood samples. The analysis was performed in comparison to Group 2.

[4] = biological target: CCR5 (Homo sapiens, UniProt P51681); assay: RANTES-induced CCR5 internalization / CCR5 receptor occupancy in PBMCs (flow cytometry); assay type: cell-based
Sequence of CCR5 (P51681 whole entry): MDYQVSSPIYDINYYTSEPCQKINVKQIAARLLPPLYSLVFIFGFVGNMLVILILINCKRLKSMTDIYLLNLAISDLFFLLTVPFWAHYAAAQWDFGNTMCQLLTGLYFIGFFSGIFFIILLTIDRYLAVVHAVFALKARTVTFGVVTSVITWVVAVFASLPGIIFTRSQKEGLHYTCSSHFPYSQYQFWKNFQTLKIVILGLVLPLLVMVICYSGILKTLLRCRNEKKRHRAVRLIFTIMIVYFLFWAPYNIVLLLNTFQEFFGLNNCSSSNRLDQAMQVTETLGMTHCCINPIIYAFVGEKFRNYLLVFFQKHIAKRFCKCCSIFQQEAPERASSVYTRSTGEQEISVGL
Protocol: The capacity of each drug to inhibit CCR5 or CCR2 internalization was evaluated. Cell-surface expression of CCR5 and CCR2 was assessed by flow cytometry, and fluorescence values were converted into molecules of equivalent soluble fluorescence (MESF).

[5] = system: HIV-1; assay: Study 201: pharmacokinetic/pharmacodynamic Emax model; assay type: in vivo, human; details: for Emax: read-out: Percent of the maximum inhibitory effect at average Css (Emax model)
From the text: Drug response was characterized using the following maximum effect (Emax) model:
where E is effect, E0 is the baseline effect (fixed to 0), Imax is the maximum inhibition, C denotes the PK variable (AUC0-24, Cmax, or steady-state concentration [Css]), IC50 is the value of the PK variable which corresponds to 50% of the maximum inhibition and γ is the shape parameter which describes the degree of sigmoidicity.

[6] = system: unilateral ureter occlusion (UUO) renal fibrosis; assay: Mouse UUO model of renal fibrosis; assay type: in vivo, CD-1 mice
Protocol: Test animals were allocated to weight-matched treatment groups on the day prior to the surgical procedure (Day-1). Male CD-1 mice (N=51; age, 7-8 weeks) underwent either sham surgery or total ligation of the right ureter, i.e. UUO, via aseptic laparotomy (FIG. 12). […] Another group received the anti-transforming growth factor TGF-β1 antibody, compound 1D11 (positive control) at 3 mg/kg/day from Days-1 to 4, injected intraperitoneally once daily, and vehicle control from Days 0 to 5. […] On Day 5, animals were anaesthetized, blood and tissues were collected prior to sacrifice.
Study endpoints included: a) body and kidney weights; b) fibrosis in obstructed kidney evaluated via histological quantitative image analysis of picrosirius red staining (ten images/depth/kidney obtained and assessed in a blinded fashion using light microscopy [at 200×] to enable sampling of 60-70% of the renal cortical area) and quantified by a composite Collagen Volume Fraction (CVF [% total area imaged]) score expressed as the average positive stain across three anatomically distinct ([…] apart) tissue sections, or depths, from the obstructed kidney; c) hydroxyproline content of frozen renal cortical tissue biopsies as assessed by biochemical analyses; d) mRNA expression of profibrotic and inflammatory biomarkers (including MCP-1, Collagen 1a1, Collagen 3a1, TGF-β1, Fibronectin-1, α-smooth muscle actin (α-SMA) and connective tissue growth factor-1 (CTGF-1); assessed via Luminex® (Life Technologies™, Carlsbad, Calif., USA) assay with relative expression normalised to HPRT (hypoxanthine phosphoribosyltransferase).
Data are expressed as mean±standard error of mean (SEM). Statistical analyses were performed using GraphPad Prism® (GraphPad Software, Inc., San Diego, Calif., USA). Treatment differences between sham-surgery+vehiclecontrol and UUO+vehicle-control groups, and between UUO+vehicle-control and UUO+compound-1D11 (positive control) groups, were analysed by unpaired t-Test. Treatment differences between UUO+vehicle-control and CVC-dose groups were analysed by one-way ANOVA (analysis of variance) with Dunnett's test (post-hoc).

Compound: CCCCOCCOc1ccc(-c2ccc3c(c2)/C=C(/C(=O)Nc2ccc([S@@+]([O-])Cc4cncn4CCC)cc2)CCCN3CC(C)C)cc1 [CVC, (S)-8-[4-(2-Butoxyethoxy)phenyl]-1-isobutyl-N-(4-{[(1-propyl-1H-imidazol-5-yl)methyl]sulfinyl}phenyl)-1,2,3,4-tetrahydro-1-benzazocine-5-carboxamide]
- Plasma levels at the approximate trough (14 hours postdose) ([1]; BID dosing, Day 6): increased in a dose-related manner
- concentration at 14.5 h ([1]; mouse, plasma, mice, Day 6, Group 3, 5 mg/kg/day (BID) oral, ~14 hours postdose (actual 14.5 hours), N=2, 3 of 5 samples below LLOQ (10 ng/mL)): 13.5 ng/mL
- concentration at 15 h ([1]; mouse, plasma, mice, Day 6, Group 4, 20 mg/kg/day (BID) oral, ~14 hours postdose (actual 15 hours)): 81.2 ± 22.8 ng/mL
- concentration at 15.5 h ([1]; mouse, plasma, mice, Day 6, Group 5, 100 mg/kg/day (BID) oral, ~14 hours postdose (actual 15.5 hours)): 551 ± 253 ng/mL
- concentration at 28 h ([1]; mouse, plasma, mice, Day 6, Group 6, 20 mg/kg/day (QD) oral, ~26 hours postdose (actual 28 hours)): 25.7 ± 8.1 ng/mL
- Inhibition of ligand binding to CCR4 [2]: only weakly inhibited
- Decrease in monocytes in peritoneal lavage vs thioglycollate control (Group 2) ([3]; Group 3 (CVC BID)): 5.7%
- Decrease in total leukocytes in peritoneal lavage vs thioglycollate control (Group 2) ([3]; Group 3 (CVC BID)): 0.8%
- Decrease in monocytes in peritoneal lavage vs thioglycollate control (Group 2) ([3]; Group 4 (CVC BID)): 45.2%
- Decrease in total leukocytes in peritoneal lavage vs thioglycollate control (Group 2) ([3]; Group 4 (CVC BID)): 22.2%
- Decrease in monocytes in peritoneal lavage vs thioglycollate control (Group 2) ([3]; Group 5 (CVC BID)): 76.5%
- Decrease in total leukocytes in peritoneal lavage vs thioglycollate control (Group 2) ([3]; Group 5 (CVC BID)): 57.6%
- Decrease in monocytes in peritoneal lavage vs thioglycollate control (Group 2) ([3]; Group 6 (CVC QD)): 26.0%
- Decrease in total leukocytes in peritoneal lavage vs thioglycollate control (Group 2) ([3]; Group 6 (CVC QD)): 14.2%
- Body weights, Days 1 to 6 ([3]; mouse, in vivo): no notable changes in body weights
- receptor occupancy at […] ([4]; CCR5, […] nM for CD4+ and 2.3 nM for CD8+ T-cells, ex vivo in humans): ≥ 90%
- CCR5 receptor occupancy at saturation ([4]; CD4+ T cells): ~91%
- Effective concentration at which saturation of CCR5 was reached ([4]; CD4+ T cells): 3.1 nM
- CCR5 receptor occupancy at saturation ([4]; CD8+ T cells): ~90%
- Effective concentration at which saturation of CCR5 was reached ([4]; CD8+ T cells): 2.3 nM
- Cell-surface expression of CCR5 ([4]; in the absence of RANTES): increased cell-surface expression of CCR5
- Emax ([5]; Human immunodeficiency virus 1, 25 mg): 54.9%
- Emax ([5]; Human immunodeficiency virus 1, 50 mg): 79.8%
- Emax ([5]; Human immunodeficiency virus 1, 75 mg): 85.9%
- Emax ([5]; Human immunodeficiency virus 1, 150 mg): 95.9%
- Emax in the PK/PD model (HIV-1 RNA) ([5]; in vivo): −1.43 log10 copies/mL
- Effect on body weight ([6]; CVC 7 mg/kg/day, Day 5): no effect on body weight
- Outcome of the 100 mg/kg/day group ([6]; CVC 100 mg/kg/day, N=9, after UUO surgery): terminated early due to moribundity
- Effect on UUO-induced increase in obstructed kidney hydroxyproline content ([6]; CVC 7 and 20 mg/kg/day): Neither dose of CVC tested affected UUO-induced increases
- Effect on UUO-induced Collagen 1a1, Collagen 3a1, TGF-β1 and Fibronectin-1 mRNA expression ([6]; obstructed kidney cortex): did not reach statistical significance
- Effect on UUO-induced MCP-1, α-SMA and CTGF-1 mRNA expression ([6]; obstructed kidney cortex): did not have significant effects
